Consider three molecules from patent US9284276B2, “N-ethyl-N-phenyl-1,2-dihydro-4,5-di-hydroxy-1-methyl-2-oxo-3-quinolinecarboxamide, preparation and uses thereof” (TEVA PHARMACEUTICAL INDUSTRIES, LTD., priority 2012, dated 2016).

Data set [1] in a line: Formation of 5-HLAQ on light exposure of laquinimod, determined by HPLC. It counts as physicochemical. The procedure: Various forms of laquinimod were exposed to light, as specified below. Presence of 5-HLAQ was determined using HPLC.
The nature of data set [2]: Influence of blister pack material on photo-degradation of laquinimod 0.6 mg capsules. The data set is classed as physicochemical. The procedure:
The goal of this study is to examine the photo-degradation of laquinimod sodium capsules, 0.6 mg, packed in blisters of various materials.
One batch of laquinimod sodium capsules, 0.6 mg/capsule was packed into four different types of blisters: PVC/AC/PVDC/PVLE/P058 504 142 (transparent), PVC/PE-EVOH/AC (A 300) G03 140 MM (transparent), A-/PVC/PE-EVOH/AC-PC (opaque), and KPMAX WH (opaque). Control was the same batch not exposed to sunlight in HDPE 50 cc DUMA™ bottle.

In data set [3] the test system is active MRI lesions in relapsing MS. Particulars: Polman et al. 2005; cited from earlier work.
Data set [4] relates to acute experimental autoimmune encephalomyelitis (aEAE) model. The settings on record: U.S. Pat. No. 6,077,851; cited from earlier work.
A short description of data set [5]: Stability of 5-HLAQ in solvents. It counts as physicochemical. Particulars: in most of the organic solvents as well as in aqueous acidic conditions. An excerpt: N-Ethyl-N-phenyl-1,2-dihydro-4,5-di-hydroxy-1-methyl-2-oxo-3-quinolinecarboxamide (5-HLAQ) is not stable in most of the organic solvents as well as in aqueous acidic conditions. Therefore common purification methods were extremely difficult. The di-acetate derivative Compound 3 is an elegant way to purify the material followed only by basic hydrolysis, acidic precipitation and rapid filtration.

The conditions of data set [6]: in vivo; cited from earlier work.

As to `CCN(C(=O)c1c(O)c2c(Cl)cccc2n(C)c1=O)c1ccccc1` [Laquinimod, N-ethyl-N-phenyl-1,2-dihydro-4-hydroxy-5-chloro-1-methyl-2-oxoquinoline-3-carboxamide], the “Presence of 5-HLAQ (wt %)” value in data set [1] (Light chamber 310-400 nm (~8 hrs.), 0.05 mg/ml in 0.02M HCl) was 1.5 wt %; in data set [1] (Light chamber 310-400 nm (~8 hrs.), 0.05 mg/ml in 0.02M NaOH) it was 71 wt %; in data set [1] (Light chamber 310-400 nm (~8 hrs.), 1 mg/ml in 0.02M NaOH, relative to laquinimod before photodegradation), 33 wt %; in data set [1] (Sunlight cabinet (5 minutes), 0.09 mg/ml aqueous solution), 11.8 wt %. Besides, in data set [2], the Sensitivity to light result is “sensitive to light”. For the same molecule, the “Development of active MRI lesions” value in data set [3] is given as “can reduce development of active MRI lesions”. Moreover, the “Efficacy in aEAE model” value in data set [4] is recorded as “effective”.
As to `CCN(C(=O)c1c(O)c2c(O)cccc2n(C)c1=O)c1ccccc1` [Compound 5-HLAQ, N-Ethyl-N-phenyl-1,2-dihydro-4,5-di-hydroxy-1-methyl-2-oxo-3-quinolinecarboxamide], in data set [5], the Stability in solvents result is reported as “not stable”.
For `CCN(C(=O)c1c(O)c2c(Cl)cccc2n(C)c1=O)c1ccccc1` [Laquinimod sodium], in data set [6], the Oral bioavailability result is “high”.
